System: LG0703-F948-PDC complex spheroid viability
Assay: Anticancer human tumor LG0703-F948-PDC patient-derived lung adenocarcinoma cell line growth inhibition [RAS]
Settings: for IC50: curve of first compound; for viability, T/C: stronger effect = lower value
Procedure, shortened: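 Tumour cells grown as complex spheroids with HUVEC endothelial cells and mesenchymal stem cells, treated with RAS pathway inhibitor combinations. Each agent spans half-log steps from near clinical Cmax, or 10 microM where Cmax is unknown.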
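Also: spheroids exposed to agents for 7 days.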
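For viability, T/C in this document: 100% = DMSO vehicle wells.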

Compound: CCc1c2c(nc3ccc(O)cc13)-c1cc3c(c(=O)n1C2)COC(=O)[C@]3(O)CC + C=CC(=O)N1CCN(c2nc(OCC3CCCN3C)nc3c(F)c(-c4nc(N)cc(C)c4C(F)(F)F)c(Cl)cc23)C(C)C1
- IC50 (second compound 0.00316 µM): 41.8 nM
- IC50 (second compound 0.01 µM): 51.3 nM
- IC50 (second compound 0.0316 µM): 37.6 nM
- IC50 (second compound 0.1 µM): 30.5 nM
- IC50 (second compound 0.316 µM): 44.4 nM
- IC50 (second compound 1 µM): 50.8 nM
- viability, T/C (second compound 0.00316 µM, first compound 0.000949 µM): 102%
- viability, T/C (second compound 0.00316 µM, first compound 0.003 µM): 99.9%
- viability, T/C (second compound 0.00316 µM, first compound 0.00949 µM): 77.8%
- viability, T/C (second compound 0.00316 µM, first compound 0.03 µM): 54.5%
- viability, T/C (second compound 0.00316 µM, first compound 0.0949 µM): 38.3%
- viability, T/C (second compound 0.00316 µM, first compound 0.3 µM): 22.9%
- viability, T/C (second compound 0.01 µM, first compound 0.000949 µM): 105%
- viability, T/C (second compound 0.01 µM, first compound 0.003 µM): 87.5%
- viability, T/C (second compound 0.01 µM, first compound 0.00949 µM): 80.7%
- viability, T/C (second compound 0.01 µM, first compound 0.03 µM): 61.3%
- viability, T/C (second compound 0.01 µM, first compound 0.0949 µM): 36.4%
- viability, T/C (second compound 0.01 µM, first compound 0.3 µM): 20.7%
- viability, T/C (second compound 0.0316 µM, first compound 0.000949 µM): 102%
- viability, T/C (second compound 0.0316 µM, first compound 0.003 µM): 106%
- viability, T/C (second compound 0.0316 µM, first compound 0.00949 µM): 92.1%
- viability, T/C (second compound 0.0316 µM, first compound 0.03 µM): 53%
- viability, T/C (second compound 0.0316 µM, first compound 0.0949 µM): 34%
- viability, T/C (second compound 0.0316 µM, first compound 0.3 µM): 21%
- viability, T/C (second compound 0.1 µM, first compound 0.000949 µM): 97.8%
- viability, T/C (second compound 0.1 µM, first compound 0.003 µM): 103%
- viability, T/C (second compound 0.1 µM, first compound 0.00949 µM): 63.4%
- viability, T/C (second compound 0.1 µM, first compound 0.03 µM): 53.1%
- viability, T/C (second compound 0.1 µM, first compound 0.0949 µM): 35.8%
- viability, T/C (second compound 0.1 µM, first compound 0.3 µM): 21.2%
- viability, T/C (second compound 0.316 µM, first compound 0.000949 µM): 104%
- viability, T/C (second compound 0.316 µM, first compound 0.003 µM): 103%
- viability, T/C (second compound 0.316 µM, first compound 0.00949 µM): 83.6%
- viability, T/C (second compound 0.316 µM, first compound 0.03 µM): 58.8%
- viability, T/C (second compound 0.316 µM, first compound 0.0949 µM): 34.4%
- viability, T/C (second compound 0.316 µM, first compound 0.3 µM): 24.3%
- viability, T/C (second compound 1 µM, first compound 0.000949 µM): 106%
- viability, T/C (second compound 1 µM, first compound 0.003 µM): 98.8%
- viability, T/C (second compound 1 µM, first compound 0.00949 µM): 91%
- viability, T/C (second compound 1 µM, first compound 0.03 µM): 57.3%
- viability, T/C (second compound 1 µM, first compound 0.0949 µM): 39.8%
- viability, T/C (second compound 1 µM, first compound 0.3 µM): 20.1%

From PubChem BioAssay AID2060890 (Molecular Pharmacology Branch, DTP, NCI, 2025)
